Data reported in patent publication US12084420B2, “Indoline compounds for inhibiting KIF18A” (Volastra Therapeutics, Inc., priority 2021, dated 2024).
Like-named read-outs stand apart in the source and are kept apart here.

Assays:
HCC15 cells = assay: Cell viability of KIF18a-sensitive cell lines, HCC15 (Cell Titre-Glo, 7 days); format: cell-based
Protocol: (§1) Cell Viability of KIF18a-Sensitive Cell Lines
(§2) Cell lines were seeded as follows 24 hours before compound treatment: HCC15 (Korean Cell Line Bank) 600 cell/well, 95 μL of RPMI-1640 media supplemented with 100 units/mL penicillin, 100 units/mL streptomycin and 10% FBS; NIH:OVCAR-3 (ATCC), 1000 cell/well, 95 μL of RPMI-1640 media supplemented with 100 units/mL penicillin, 100 units/mL streptomycin, 0.01 mg/mL bovine insulin, and 20% FBS; JIMT-1 (Addexbio) 1000 cell/well, 95 μL of DMEM media supplemented with 100 units/mL penicillin, 100 units/mL streptomycin, and 10% FBS.
(§3) Test compounds were added to cells in a 20× dilution scheme by adding 5 μL of serially diluted compound to the plate, and the treated cells were incubated for an additional 7 days in a 37° C., 5% CO2 incubator. DMSO was used as the negative control (0% effect), and wells omitting cells were used as the positive control (100% effect). The cells were incubated for seven days, and cell viability determined via the Promega Cell Titre-Glo® Assay kit. Luminescence units were converted to ATP concentrations via an ATP standard curve (10 point, 2-fold dilution from 5 uM). % Inhibition was calculated for each well as: ([max−min]−[test−min])/[max−min]. IC50 values were calculated from concentration vs. % Inhibition data via a four-parameter variable slope model.

[1] = molecular target: KIF18a-Microtubule Complex (Homo sapiens (Human), UniProt Q8NI77); assay: Binding kinetics to KIF18a-microtubule complex (global progress curve analysis); conditions: for koff (off-rate from binding kinetics assay) / kon (on-rate from binding kinetics assay): global progress curve analysis; for Ki: read-out: KI (determined from binding kinetic assay koff/kon), koff/kon; for koff: read-out: koff (off-rate from binding kinetics assay)
Protocol: Binding Kinetics to KIF18a-Microtubule Complex
Compound binding kinetics parameters (kon and koff) were determined by the method of global progress curve analysis (GPCA). […] ADP product levels were determined by the Promega® ADP-Glo assay. The time/dose-dependent progress curves were then globally fit to a Michaelis-Menten kinetics model with 1-step slow binding inhibition to derive both on-rate kon and off-rate koff values (Zhang, R., Wong, K. (2017): “High performance enzyme kinetics of turnover, activation and inhibition for translational drug discovery”, Expert Opinion on Drug Discovery, 2017 January; 12(1):17-37. doi: 10.1080/17460441.2017.1245721).

JIMT-1 cells = assay: Cell viability of KIF18a-sensitive cell lines, JIMT-1 (Cell Titre-Glo, 7 days); format: cell-based
Protocol: as §1, §2, §3

NIH:OVCAR-3 cells = assay: Cell viability of KIF18a-sensitive cell lines, NIH:OVCAR-3 (Cell Titre-Glo, 7 days); format: cell-based
Protocol: as §1, §2, §3

hKIF18A (1-374) = hKIF18A (1-374) (Homo sapiens (Human), UniProt Q8NI77); assay: Inhibition of KIF18A microtubule-dependent ATPase activity (ADP-Glo); conditions: KIF18A microtubule-dependent ATPase activity, biochemical assay
[2] = HCC-15 cells, 7 days, Cell Titre-Glo, read-out: HCC-15 IC50
[3] = JIMT-1 cells, 7 days, Cell Titre-Glo, read-out: JIMT-1 IC50
[4] = NIH-OVCAR3 cells, 7 days, Cell Titre-Glo, read-out: NIH-OVCAR3 IC50
[5] = HCC15, 168 h, HCC-15 cells, 7 days, Cell Titre-Glo, read-out: HCC-15 IC50
[6] = Homo sapiens, 168 h, JIMT-1 cells, 7 days, Cell Titre-Glo, read-out: JIMT-1 IC50
[7] = Homo sapiens, OVCAR-3, 168 h, NIH-OVCAR3 cells, 7 days, Cell Titre-Glo, read-out: NIH-OVCAR3 IC50

hKIF18A (1-374), sequence (Q8NI77 whole entry, looked up): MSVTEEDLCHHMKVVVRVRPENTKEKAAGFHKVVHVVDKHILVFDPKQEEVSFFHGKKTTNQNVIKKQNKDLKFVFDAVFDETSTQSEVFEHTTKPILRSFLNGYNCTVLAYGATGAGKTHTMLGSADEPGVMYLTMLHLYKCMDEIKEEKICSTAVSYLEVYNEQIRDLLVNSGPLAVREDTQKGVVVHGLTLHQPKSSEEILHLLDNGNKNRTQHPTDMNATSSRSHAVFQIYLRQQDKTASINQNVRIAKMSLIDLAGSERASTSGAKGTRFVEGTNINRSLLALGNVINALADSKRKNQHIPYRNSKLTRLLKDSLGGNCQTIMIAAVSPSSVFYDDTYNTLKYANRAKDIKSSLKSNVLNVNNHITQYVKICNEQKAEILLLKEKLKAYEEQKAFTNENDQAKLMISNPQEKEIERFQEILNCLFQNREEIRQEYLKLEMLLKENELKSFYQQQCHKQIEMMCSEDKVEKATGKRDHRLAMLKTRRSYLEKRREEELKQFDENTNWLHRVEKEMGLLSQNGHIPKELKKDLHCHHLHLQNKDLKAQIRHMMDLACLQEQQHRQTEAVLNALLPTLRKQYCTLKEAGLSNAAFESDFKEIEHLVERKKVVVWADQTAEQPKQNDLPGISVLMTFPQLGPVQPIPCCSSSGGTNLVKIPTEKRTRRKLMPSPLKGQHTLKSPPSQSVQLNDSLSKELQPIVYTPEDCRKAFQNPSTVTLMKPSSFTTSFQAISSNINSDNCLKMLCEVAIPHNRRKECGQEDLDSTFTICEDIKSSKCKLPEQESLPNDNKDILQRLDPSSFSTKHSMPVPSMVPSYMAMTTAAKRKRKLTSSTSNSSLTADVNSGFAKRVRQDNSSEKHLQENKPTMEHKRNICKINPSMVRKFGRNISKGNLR
hKIF18A (1-374), sequence (Q2XVP4 whole entry partner, looked up): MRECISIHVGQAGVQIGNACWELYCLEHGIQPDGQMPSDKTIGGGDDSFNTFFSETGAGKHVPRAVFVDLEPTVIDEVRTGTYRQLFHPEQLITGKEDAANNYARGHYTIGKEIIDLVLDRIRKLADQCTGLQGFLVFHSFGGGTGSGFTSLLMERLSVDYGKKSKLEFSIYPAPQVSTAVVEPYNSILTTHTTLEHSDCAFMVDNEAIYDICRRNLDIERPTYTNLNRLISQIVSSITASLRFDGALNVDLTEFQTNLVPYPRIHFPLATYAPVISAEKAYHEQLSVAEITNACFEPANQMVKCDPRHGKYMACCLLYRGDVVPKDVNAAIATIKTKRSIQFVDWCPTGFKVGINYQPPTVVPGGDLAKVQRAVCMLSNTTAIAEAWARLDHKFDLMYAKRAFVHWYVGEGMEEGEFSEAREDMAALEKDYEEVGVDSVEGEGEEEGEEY
hKIF18A (1-374), sequence (P02554 whole entry partner, looked up): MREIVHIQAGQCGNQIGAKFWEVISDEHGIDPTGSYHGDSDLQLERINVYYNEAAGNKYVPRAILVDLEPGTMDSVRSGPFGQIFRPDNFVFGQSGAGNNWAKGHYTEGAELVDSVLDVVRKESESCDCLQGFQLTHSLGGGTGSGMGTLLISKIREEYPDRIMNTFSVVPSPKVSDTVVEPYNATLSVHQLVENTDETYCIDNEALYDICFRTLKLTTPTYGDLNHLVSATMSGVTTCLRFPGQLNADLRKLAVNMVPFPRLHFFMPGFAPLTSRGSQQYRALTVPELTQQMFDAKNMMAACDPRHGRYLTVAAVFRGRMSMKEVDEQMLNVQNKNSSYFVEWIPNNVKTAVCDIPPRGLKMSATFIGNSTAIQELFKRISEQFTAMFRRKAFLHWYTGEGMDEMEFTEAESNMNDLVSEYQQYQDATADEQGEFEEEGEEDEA
KIF18a-Microtubule Complex, sequence (Q8NI77 whole entry, looked up): as the sequence (Q8NI77 whole entry, looked up) above
KIF18a-Microtubule Complex, sequence (Q2XVP4 whole entry partner, looked up): as the sequence (Q2XVP4 whole entry partner, looked up) above
KIF18a-Microtubule Complex, sequence (P02554 whole entry partner, looked up): as the sequence (P02554 whole entry partner, looked up) above

Compound	IC50 (HCC15 cells; [2]) [nM]	kon (on-rate from binding kinetics assay) [1] [M⁻¹ s⁻¹]	disc. t1/2 (dissociation half-life ln(2)/koff) ([1]; ln(2)/koff) [h]	Ki [1] [nM]	IC50 (JIMT-1 cells; [3]) [nM]	IC50 (NIH:OVCAR-3 cells; [4]) [nM]	IC50 (hKIF18A (1-374)) [nM]	IC50 (HCC15 cells; [5]) [nM]	IC50 (JIMT-1 cells; [6]) [nM]	IC50 (NIH:OVCAR-3 cells; [7]) [nM]	further results
CS(=O)(=O)Nc1ccc2c(c1)C1(CCC3(CC3)CC1)CN2C(=O)c1cccc(C(O)C2CCCC2)c1 (single isomer, unassigned) [Compound 165b]	46	11900	4.2	3.9	38	57	10	–	–	–	koff (off-rate from binding kinetics assay) [1]: 4.72e-05 s⁻¹
CCS(=O)(=O)Nc1ccc2c(c1)[C@]1(CC[C@@H](C(F)F)CC1)CN2C(=O)c1cccc(S(=O)(=O)NC(C)(C)C)c1 [Compound 333a]	22	7780	53	0.47	24	17	18	–	–	–	koff (off-rate from binding kinetics assay) [1]: 3.61e-06 s⁻¹
CS(=O)(=O)Nc1ccc2c(c1)C1(CCC3(CC3)CC1)CN2C(=O)c1cccc(CN2CCC(F)(F)CC2)c1 [Compound 163, N-(1″-(3-((4,4-difluoropiperidin-1-yl)methyl)benzoyl)dispiro[cyclopropane-1,1′-cyclohexane-4′,3″-indolin]-5″- yl)methanesulfonamide]	–	–	–	–	–	–	20	140	120	190	–
CC(C)(C)NS(=O)(=O)c1cccc(C(=O)N2CC3(CCC4(CC4)CC3)c3cc(NS(=O)(=O)C4CC4)ccc32)c1 [Compound 160, N-(tert-butyl)-3-(5″- (cyclopropanesulfonamido)dispiro [cyclopropane-1,1′-cyclohexane-4′,3″- indoline]-1″- carbonyl)benzenesulfonamide]	–	10600	33	0.54	–	–	20	7.5	5.4	8	koff [1]: 5.83e-06 s⁻¹
CS(=O)(=O)Nc1ccc2c(c1)C1(CCC3(CC3)CC1)CN2C(=O)c1cccc(C(O)C2CCCC2)c1 (single isomer, unassigned) [Compound 165a]	68	11900	3.8	4.2	45	59	8.8	–	–	–	koff (off-rate from binding kinetics assay) [1]: 5e-05 s⁻¹
CC(C)(C)NS(=O)(=O)c1cccc(C(=O)N2CC3(CCC4(CC4)CC3)c3c2ccc(NS(C)(=O)=O)c3F)c1 [Compound 310, N-(tert-butyl)-3-(4″-fluoro-5″-(methylsulfonamido)dispiro[cyclopropane-1,1′-cyclohexane-4′,3″-indoline]-1″-carbonyl)benzenesulfonamide]	–	–	–	–	–	–	6.6	11	7.9	9.1	–
CC(C)(C)NS(=O)(=O)c1cc(C(=O)N2CC3(CCC4(CC4)CC3)c3cc(NS(C)(=O)=O)ccc32)ccc1F [Compound 159, N-(tert-butyl)-2-fluoro-5-(5″- (methylsulfonamido)dispiro[cyclopropane-1,1′-cyclohexane-4′,3″-indoline]-1″-carbonyl)benzenesulfonamide]	–	7220	32	0.83	–	–	19	21	15	22	koff [1]: 6.11e-06 s⁻¹
CS(=O)(=O)Nc1ccc2c(c1)C1(CCCCC1)CN2C(=O)c1cccc(C(O)C2CCCC2)c1 (centres unmarked) [Compound 157, N-(1′-(3-(cyclopentyl(hydroxy)methyl)benzoyl)spiro[cyclohexane-1,3′-indolin]-5′-yl)methanesulfonamide]	–	–	–	–	–	–	58	600	440	720	–
Cc1cc(NC(=O)c2ccc(NS(=O)(=O)CCO)cc2N2CCC3(CC2)CC3)nc(N2CCC(F)(F)CC2)n1 [AMG650, 2-{6-azaspiro[2.5]octan-6-yl}-N-[2-(4,4-difluoropiperidin-1-yl)-6-methylpyrimidin-4-yl]-4-(2-hydroxyethanesulfonamido)benzamide, reference compound]	–	–	–	–	–	–	–	–	–	–	IC50 (HCC15 cells; HCC15, 168 h, read-out: IC50, cell viability HCC-15): 66 nM; dissociation t1/2 ([1]; ln(2)/koff): 4.1 h; IC50 (JIMT-1 cells; Homo sapiens, JIMT-1, 168 h, read-out: IC50, cell viability JIMT-1): 130 nM; IC50 (NIH:OVCAR-3 cells; Homo sapiens, OVCAR-3, 168 h, read-out: IC50, cell viability NIH: OVCAR3): 100 nM
O=C(c1cccc(S(=O)(=O)C2CCCC2)c1)N1CC2(CCC3(CC3)CC2)c2cc(NS(=O)(=O)CCO)ccc21 [Compound 229, N-(1″-(3-(cyclopentylsulfonyl)benzoyl)dispiro [cyclopropane-1,1′-cyclohexane-4′,3″- indolin]-5″-yl)-2-hydroxyethane-1-sulfonamide]	–	16900	39	0.29	–	–	6.2	11	11	13	koff [1]: 5e-06 s⁻¹
CS(=O)(=O)Nc1ccc2c(c1)C1(CCCCC1)CN2C(=O)c1cccc(S(=O)(=O)N2CCC(F)(F)CC2)c1 [Compound 19, N-(1′-(3-((4,4-difluoropiperidin-1-yl)sulfonyl)benzoyl)spiro[cyclohexane-1,3′-indolin]-5′-yl)methanesulfonamide]	–	14200	7.2	1.8	–	–	32	92	–	–	koff [1]: 2.67e-05 s⁻¹
CS(=O)(=O)Nc1ccc2c(c1)C1(CCC3(CC3)CC1)CN2C(=O)c1ccc([C@@H](O)C2CCCC2)o1 (single isomer, unassigned) [Compound 352b]	19	–	–	–	19	27	–	–	–	–	–
CC(C)(C)NS(=O)(=O)c1cccc(C(=O)N2CC3(CCC4(CC4)CC3)c3cc(NS(C)(=O)=O)c(F)cc32)c1 [Compound 309, N-(tert-butyl)-3-(6″-fluoro-5″-(methylsulfonamido)dispiro[cyclopropane-1,1′-cyclohexane-4′,3″-indoline]-1″-carbonyl)benzenesulfonamide]	–	–	–	–	–	–	6.5	12	9.4	12	–
CC(C)(C)S(=O)(=O)Nc1cccc(C(=O)N2CC3(CCC4(CC4)CC3)c3cc(NS(C)(=O)=O)ccc32)c1 [Compound 355, 2-methyl-N-(3-(5″-(methylsulfonamido)dispiro[cyclopropane-1,1′-cyclohexane-4′,3″-indoline]-1″-carbonyl)phenyl)propane-2-sulfonamide]	–	–	–	–	–	–	25	94	120	110	–
CS(=O)(=O)Nc1ccc2c(c1)C1(CCC3(CC3)CC1)CN2C(=O)c1cccc(S(=N)(=O)C2CCCC2)c1 (single isomer, unassigned) [Compound 287b]	97	–	–	–	64	33	12	–	–	–	–
CS(=O)(=O)Nc1ccc2c(c1)C1(CCC3(CC3)CC1)CN2C(=O)c1ccc([C@H](O)C2CCCC2)o1 (single isomer, unassigned) [Compound 352a]	34	–	–	–	40	45	–	–	–	–	–
CCNc1ccc2c(c1)C1(CCC3(CC3)CC1)CN2C(=O)c1cccc(S(=O)(=O)N2CCC(F)(F)CC2)c1 [Compound 30, (3-((4,4-difluoropiperidin-1-yl)sulfonyl)phenyl)(5″-(ethylamino)dispiro[cyclopropane-1,1′-cyclohexane-4′,3″-indolin]-1″-yl)methanone]	–	–	–	–	–	–	180	3500	2300	1430	–
